Assay [1] addresses T1, Peroxisome proliferator-activated receptor gamma (Homo sapiens, UniProt P37231).
T1 sequence (P37231 whole entry): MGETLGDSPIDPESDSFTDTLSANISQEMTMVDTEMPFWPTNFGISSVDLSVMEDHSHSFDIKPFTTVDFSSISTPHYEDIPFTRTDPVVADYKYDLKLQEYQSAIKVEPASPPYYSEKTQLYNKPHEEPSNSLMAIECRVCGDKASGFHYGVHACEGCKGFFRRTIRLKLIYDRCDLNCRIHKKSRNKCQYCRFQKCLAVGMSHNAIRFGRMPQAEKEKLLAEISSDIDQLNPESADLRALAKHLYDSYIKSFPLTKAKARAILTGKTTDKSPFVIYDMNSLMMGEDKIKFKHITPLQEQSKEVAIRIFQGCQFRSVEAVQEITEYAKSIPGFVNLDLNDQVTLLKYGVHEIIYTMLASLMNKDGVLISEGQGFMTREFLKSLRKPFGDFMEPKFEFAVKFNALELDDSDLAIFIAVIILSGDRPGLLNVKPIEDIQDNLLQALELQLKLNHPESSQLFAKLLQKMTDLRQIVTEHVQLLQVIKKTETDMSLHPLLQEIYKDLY
Format: functional.

For assay [2], the target named is T1, Peroxisome proliferator-activated receptor gamma. Format: functional. This is another data set of the same source.
In assay [3] the target is Vascular endothelial growth factor receptor 2 (Homo sapiens, UniProt P35968). The assay is classed as functional.
Sequence of Vascular endothelial growth factor receptor 2 (P35968 whole entry): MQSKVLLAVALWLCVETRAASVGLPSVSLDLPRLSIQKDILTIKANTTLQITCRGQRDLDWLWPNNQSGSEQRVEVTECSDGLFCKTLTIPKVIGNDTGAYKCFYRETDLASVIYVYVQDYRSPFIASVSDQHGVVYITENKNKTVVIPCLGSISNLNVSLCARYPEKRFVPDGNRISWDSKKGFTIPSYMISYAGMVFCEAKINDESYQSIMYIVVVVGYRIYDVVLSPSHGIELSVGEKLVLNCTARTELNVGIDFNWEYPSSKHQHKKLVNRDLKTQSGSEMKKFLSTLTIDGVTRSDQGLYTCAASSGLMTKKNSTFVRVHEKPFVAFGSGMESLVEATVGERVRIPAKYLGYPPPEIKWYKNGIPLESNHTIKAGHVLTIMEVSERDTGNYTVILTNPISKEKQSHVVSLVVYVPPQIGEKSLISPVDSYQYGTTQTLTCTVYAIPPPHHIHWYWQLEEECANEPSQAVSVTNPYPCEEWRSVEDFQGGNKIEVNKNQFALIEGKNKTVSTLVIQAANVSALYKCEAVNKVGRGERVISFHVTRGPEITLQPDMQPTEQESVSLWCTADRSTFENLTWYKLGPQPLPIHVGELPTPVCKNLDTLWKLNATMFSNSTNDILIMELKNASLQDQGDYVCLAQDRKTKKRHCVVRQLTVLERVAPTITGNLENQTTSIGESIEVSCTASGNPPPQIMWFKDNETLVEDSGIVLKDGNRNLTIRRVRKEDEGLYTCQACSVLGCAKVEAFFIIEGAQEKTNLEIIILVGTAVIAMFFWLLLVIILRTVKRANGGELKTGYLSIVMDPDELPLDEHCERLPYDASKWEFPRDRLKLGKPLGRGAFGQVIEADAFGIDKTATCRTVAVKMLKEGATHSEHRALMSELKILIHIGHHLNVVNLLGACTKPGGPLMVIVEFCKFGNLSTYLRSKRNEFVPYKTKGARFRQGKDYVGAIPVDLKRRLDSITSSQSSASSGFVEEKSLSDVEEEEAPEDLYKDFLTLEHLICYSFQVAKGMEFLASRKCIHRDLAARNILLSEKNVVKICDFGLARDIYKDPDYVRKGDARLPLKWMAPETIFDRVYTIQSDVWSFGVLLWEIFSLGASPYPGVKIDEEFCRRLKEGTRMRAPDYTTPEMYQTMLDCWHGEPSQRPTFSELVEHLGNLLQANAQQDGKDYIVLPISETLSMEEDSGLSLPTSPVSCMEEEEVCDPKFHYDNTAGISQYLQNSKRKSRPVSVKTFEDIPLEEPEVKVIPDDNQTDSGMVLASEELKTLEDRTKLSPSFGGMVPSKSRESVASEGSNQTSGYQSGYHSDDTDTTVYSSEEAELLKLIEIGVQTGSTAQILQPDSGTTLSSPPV
Assay [4] has as its target T2, Glucocorticoid receptor (Homo sapiens, UniProt P04150).
T2 sequence (P04150 whole entry): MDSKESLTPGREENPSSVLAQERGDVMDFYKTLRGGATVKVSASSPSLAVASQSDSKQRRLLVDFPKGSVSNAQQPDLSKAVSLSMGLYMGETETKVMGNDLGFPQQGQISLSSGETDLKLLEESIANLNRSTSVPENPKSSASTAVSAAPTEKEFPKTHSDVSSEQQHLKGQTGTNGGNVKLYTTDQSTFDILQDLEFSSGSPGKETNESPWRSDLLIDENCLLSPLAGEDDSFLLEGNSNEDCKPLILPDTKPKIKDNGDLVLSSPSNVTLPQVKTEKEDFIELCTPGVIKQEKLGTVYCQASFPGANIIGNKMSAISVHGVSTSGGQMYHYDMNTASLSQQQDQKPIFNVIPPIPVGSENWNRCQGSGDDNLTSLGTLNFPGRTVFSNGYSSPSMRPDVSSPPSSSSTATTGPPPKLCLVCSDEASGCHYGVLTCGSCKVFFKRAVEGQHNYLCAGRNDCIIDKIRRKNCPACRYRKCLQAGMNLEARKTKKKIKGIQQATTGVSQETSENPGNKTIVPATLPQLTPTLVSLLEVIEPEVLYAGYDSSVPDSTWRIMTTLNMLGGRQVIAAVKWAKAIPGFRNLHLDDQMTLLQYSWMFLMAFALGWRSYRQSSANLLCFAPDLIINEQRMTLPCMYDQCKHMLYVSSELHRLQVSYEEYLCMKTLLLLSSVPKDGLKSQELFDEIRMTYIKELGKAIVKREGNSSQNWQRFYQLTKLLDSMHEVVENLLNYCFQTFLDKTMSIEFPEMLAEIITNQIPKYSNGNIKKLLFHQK
The assay is classed as functional.

In assay [5] the target is T3, Estrogen receptor (Homo sapiens, UniProt P03372).
T3 sequence (P03372 whole entry): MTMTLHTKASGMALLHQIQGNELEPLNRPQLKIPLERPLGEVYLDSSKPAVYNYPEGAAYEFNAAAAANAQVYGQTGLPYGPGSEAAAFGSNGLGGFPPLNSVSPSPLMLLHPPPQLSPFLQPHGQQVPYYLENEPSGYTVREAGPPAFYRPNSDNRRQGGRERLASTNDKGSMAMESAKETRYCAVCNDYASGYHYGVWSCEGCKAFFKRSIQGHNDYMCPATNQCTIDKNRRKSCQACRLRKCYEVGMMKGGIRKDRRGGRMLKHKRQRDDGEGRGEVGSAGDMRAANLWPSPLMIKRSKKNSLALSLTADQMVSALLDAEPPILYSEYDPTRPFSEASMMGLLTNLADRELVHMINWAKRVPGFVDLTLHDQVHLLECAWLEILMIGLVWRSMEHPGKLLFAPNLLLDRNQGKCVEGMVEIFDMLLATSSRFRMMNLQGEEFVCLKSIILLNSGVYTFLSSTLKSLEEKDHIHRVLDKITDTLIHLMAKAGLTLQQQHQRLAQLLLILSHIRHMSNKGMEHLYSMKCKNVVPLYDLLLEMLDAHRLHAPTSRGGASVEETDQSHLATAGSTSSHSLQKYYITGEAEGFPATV

For assay [6], the target named is T3, Estrogen receptor. The assay is classed as functional.
For assay [7], the target named is T4, Androgen receptor (Homo sapiens, UniProt P10275).
T4 sequence (P10275 whole entry): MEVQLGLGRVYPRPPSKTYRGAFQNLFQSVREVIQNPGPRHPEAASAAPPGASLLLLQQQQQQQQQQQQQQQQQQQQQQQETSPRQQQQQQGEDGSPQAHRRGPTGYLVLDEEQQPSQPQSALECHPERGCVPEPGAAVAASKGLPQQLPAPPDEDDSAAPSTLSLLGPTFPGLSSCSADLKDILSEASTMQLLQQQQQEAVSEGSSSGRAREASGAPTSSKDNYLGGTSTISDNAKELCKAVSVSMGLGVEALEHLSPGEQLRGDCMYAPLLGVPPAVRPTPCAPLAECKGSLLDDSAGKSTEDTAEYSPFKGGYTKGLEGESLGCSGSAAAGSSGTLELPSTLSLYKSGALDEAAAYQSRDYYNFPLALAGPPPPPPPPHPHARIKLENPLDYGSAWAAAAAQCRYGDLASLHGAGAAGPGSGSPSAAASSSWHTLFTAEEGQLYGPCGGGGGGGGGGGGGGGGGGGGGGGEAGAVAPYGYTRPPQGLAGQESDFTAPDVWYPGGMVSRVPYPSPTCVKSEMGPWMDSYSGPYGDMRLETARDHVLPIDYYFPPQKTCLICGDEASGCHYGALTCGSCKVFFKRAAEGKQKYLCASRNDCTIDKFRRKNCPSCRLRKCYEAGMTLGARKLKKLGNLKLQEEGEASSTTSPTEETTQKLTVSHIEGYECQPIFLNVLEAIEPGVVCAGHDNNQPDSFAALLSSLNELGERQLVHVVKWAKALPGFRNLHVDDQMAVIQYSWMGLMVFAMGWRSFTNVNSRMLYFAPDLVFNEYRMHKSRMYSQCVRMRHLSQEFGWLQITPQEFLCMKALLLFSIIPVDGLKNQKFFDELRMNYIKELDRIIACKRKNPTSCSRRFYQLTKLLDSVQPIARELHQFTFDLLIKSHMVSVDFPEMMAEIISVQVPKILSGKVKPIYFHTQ

Among the data in ChEMBL document CHEMBL5291721, “A preclinical secondary pharmacology resource illuminates target-adverse drug reaction associations of marketed drugs” (Nat Commun, 2023) are AC50 values, retold here.
Further: assay procedure not described here.

`CCC[C@@]1(CCc2ccccc2)CC(O)=C([C@H](CC)c2cccc(NS(=O)(=O)c3ccc(C(F)(F)F)cn3)c2)C(=O)O1`: the AC50 in assay [1] is greater than 30 µM; in assay [2] it was 6.9 µM; in assay [3] it was greater than 30 µM; in assay [4], greater than 30 µM.

In the case of `CN(C)CCC=C1c2ccccc2CCc2ccccc21` [AMITRIPTYLINE], the AC50 in assay [5] and in assay [3] was greater than 30 µM each time.

In the case of `CN1CC2c3ccccc3Oc3ccc(Cl)cc3C2C1` (configuration not stated) [ASENAPINE], the concentration at half-maximal activity (AC50) in assay [1], in assay [2], in assay [6], in assay [3] and in assay [4] was greater than 30 µM throughout.

Consider `CC(=O)Oc1ccccc1C(=O)O` [ASPIRIN], for which the AC50 was greater than 30 µM in assay [7], 15.1 µM in assay [5] and greater than 30 µM in assay [3].

As to `Cn1cnc2c(F)c(Nc3ccc(Br)cc3F)c(C(=O)NOCCO)cc21` [BINIMETINIB], the half-maximal activity concentration (AC50) in assay [1], in assay [2], in assay [6], in assay [3] and in assay [4] was greater than 30 µM throughout.

As for `C[C@H](CCC(=O)O)[C@H]1CC[C@H]2[C@@H]3[C@H](O)C[C@@H]4C[C@H](O)CC[C@]4(C)[C@H]3CC[C@]12C` [CHENODIOL], the half-maximal activity concentration (AC50) in assay [1] is greater than 30 µM; in assay [2], greater than 30 µM; in assay [6], greater than 30 µM; in assay [3], greater than 3 µM.

With `C[C@H](Nc1ncnc2[nH]cnc12)c1cc2cccc(Cl)c2c(=O)n1-c1ccccc1` [DUVELISIB], the AC50 in assay [7], in assay [1], in assay [2], in assay [6], in assay [3] and in assay [4] was greater than 30 µM in each case.

For the molecule `NCC1(CC(=O)O)CCCCC1` [GABAPENTIN], the concentration at half-maximal activity (AC50) in assay [1], in assay [2], in assay [3] and in assay [4] was greater than 30 µM throughout.

Turning to `C[C@@H](O)[C@H]1C(=O)N2C(C(=O)O)=C(SCCN=CN)C[C@H]12` [IMIPENEM ANHYDROUS], the concentration at half-maximal activity (AC50) in assay [1], in assay [2], in assay [6], in assay [3] and in assay [4] was greater than 300 µM each time.

`O=C1[C@@H]2[C@H]3CC[C@H](C3)[C@@H]2C(=O)N1C[C@@H]1CCCC[C@H]1CN1CCN(c2nsc3ccccc23)CC1` [LURASIDONE]: the AC50 in assay [7] was greater than 30 µM; in assay [1], greater than 30 µM; in assay [2] it was greater than 30 µM; in assay [6], greater than 30 µM; in assay [3] it was greater than 30 µM; in assay [4], greater than 10 µM.

As to `CO[C@@H]1[C@@H](OC(N)=O)[C@@H](O)[C@H](Oc2ccc3c(O)c(NC(=O)c4ccc(O)c(CC=C(C)C)c4)c(=O)oc3c2C)OC1(C)C` [NOVOBIOCIN], the half-maximal activity concentration (AC50) is greater than 30 µM in assay [1]; greater than 30 µM in assay [2]; greater than 30 µM in assay [6]; 25 µM in assay [3]; greater than 30 µM in assay [4].

In the case of `COc1cc2c(cc1OC)C1CC(=O)C(CC(C)C)CN1CC2` (configuration not stated) [TETRABENAZINE], the AC50 in assay [1], in assay [2], in assay [6] and in assay [3] was greater than 30 µM each time.

Consider `c1cnc2cc3c(cc2n1)[C@@H]1CNC[C@H]3C1` [VARENICLINE], for which the half-maximal activity concentration (AC50) in assay [1] was greater than 30 µM; in assay [2], greater than 30 µM; in assay [6], 4.6 µM; in assay [3], greater than 30 µM.

In the case of `Nc1c2c(nc3ccccc13)CCCC2O` (configuration not stated) [VELNACRINE], the half-maximal activity concentration (AC50) in assay [1] was greater than 30 µM; in assay [2], greater than 30 µM; in assay [6], greater than 10 µM; in assay [3], greater than 30 µM; in assay [4], 14 µM.
